Results on one molecule are retold here after patent US12329753B2, “Phosphodiesterase inhibitor treatment” (Cyrano Therapeutics, Inc., priority 2008, dated 2025).

One assay relates to Hyposmic patients. Briefly: Open label trial of inhalable PDE inhibitor in hyposmic patients (Examples 3, 4). Format: in vivo, human. Conditions: nasal administration, not more than 500 μg. The protocol:
Hyposmic patients for whom the etiology of smell loss is not associated with head injury or allergic rhinitis are enrolled in an open label trial of inhalable theophylline. Patients are started at an initial dose of not more than 500 μg formulated as a liquid spray or dry powder to be delivered as a metered dose. Initially only local patients are enrolled so that quicker dose titration is achieved. Groups of 5 patients are started on not more than 500 μg of theophylline and continued for 1 month.
Patients are tested for improvement in smell acuity using the standard forced choice technique using four odors as described in Example 1. Additionally, subjective measurements of smell function are obtained using a scale from 0-100 as described in Example 1. Blood samples are also drawn to ascertain blood theophylline level to gauge its relationship to the expected recovery of smell.
Hyposmic patients for whom the etiology of smell loss is not associated with head injury or allergic rhinitis are enrolled in an open label trial of an inhalable PDE1 inhibitor. […]

In the next assay the test system is cGMP. Briefly: Parotid saliva cGMP, 96 plate spectrophotometric assay. It counts as in vivo, human. Conditions: for saliva cGMP over initial values: improved patients; for change of saliva cGMP: unimproved patients. The protocol:
Parotid saliva was collected from each patient by application of a Lashley cup over Stensen's duct with lingual stimulation by placement of concentrated lemon juice. Saliva was collected in plastic tubes and stored at −20° C. until assayed. cAMP and cGMP were measured in saliva by a sensitive 96 plate spectrophotometric assay (R&D Systems, Minneapolis, MN).
All patients were placed in a fixed design open label clinical trial with treatment with oral theophylline. Treatment consisted of fixed treatment periods of two-eight months with sequential doses of the drug at 200 mg, 400 mg and 600 mg. At termination of each of these intervals, patients returned to study site for reevaluation. At the end of each interval subjective responses to treatment were measured with a modification of the 0-100 scale previously used (vs). Subjective responses to treatment were graded on a sliding scale from −100-0-+100 with patients recording improvement (+0-+100), no improvement (0) or worsening (0—-100) of their overall smell function. If overall smell function improved ≥5% they were considered to improve clinically (1). If smell function improved <5% they were considered not to improve (1). At the end of each interval subjective measurements of smell function, measurements of DT, RT, ME and H and measurements of parotid saliva for levels of cAMP and cGMP were obtained. In addition, blood plasma was obtained by venipuncture, placed in ice into zinc free tubes which contained 100 mg zinc free heparin, centrifuged at 3000 rpm for 10-20 min, the plasma transferred to plastic PCR tubes and stored at −20° C. until assayed. Theophylline was assayed by a fluorescence polarization assay (Abbott, Chicago, IL), as previously described.
Data for the cyclic nucleotides from these 31 patients was not analyzed until the entire study of the 312 patients in Example 1 was assembled and analyzed in its entirety. After completion of these analyses, all data for parotid saliva cAMP and cGMP from all patients in whom salivary cAMP and cGMP were obtained were assembled. Levels of salivary cyclic nucleotides varied widely. Initially, without external criteria, there was no way to understand these disparate data. […] In a similar manner, measurements of each patient's plasma theophylline level at each dosage of theophylline (at 200 mg, 400 mg, 600 mg of theophylline) were catagorized. The two patient groups were also analyzed post hoc with respect to type of smell loss and etiology of smell loss.

A further assay concerns total PDE activity. Conditions: human lung extracts; therapeutic concentrations; cited from earlier work.

As for `Cn1c(=O)c2[nH]cnc2n(C)c1=O` [theophylline], the “recovery of smell acuity versus oral administration” value with Hyposmic patients is given as “at least an equivalent recovery of smell acuity”. In addition, in the assay with cGMP (oral 400 mg), the “saliva cGMP over initial values” amounted to 275% and the “change of saliva cGMP” value is “little change”. Further, in the assay on cGMP (oral 600 mg), the “saliva cGMP over initial values” was determined as 338% and the “change of saliva cGMP” value is reported as “no increase”. In the assay with total PDE activity, the “inhibition of total PDE activity” value is given as 5 to 10%.
